As a reminder, the EC50 is the concentration giving half of the maximal effect.

The record followed here is patent US10618930B2, “Compounds for the treatment of cancer” (Eisai R&D Management Co., Ltd., priority 2017, dated 2020).

The target in one data set is REF Human STING (Homo sapiens, UniProt Q86WV6). The data set is described as follows: STING variant specific reporter assay, REF-STING (THP1-Dual KO-STING cells). The conditions noted are these: read-out: Human STING EC50 (μM) REF; Table 5; ammonium salt form of each compound.
Sequence of REF Human STING (Q86WV6 whole entry): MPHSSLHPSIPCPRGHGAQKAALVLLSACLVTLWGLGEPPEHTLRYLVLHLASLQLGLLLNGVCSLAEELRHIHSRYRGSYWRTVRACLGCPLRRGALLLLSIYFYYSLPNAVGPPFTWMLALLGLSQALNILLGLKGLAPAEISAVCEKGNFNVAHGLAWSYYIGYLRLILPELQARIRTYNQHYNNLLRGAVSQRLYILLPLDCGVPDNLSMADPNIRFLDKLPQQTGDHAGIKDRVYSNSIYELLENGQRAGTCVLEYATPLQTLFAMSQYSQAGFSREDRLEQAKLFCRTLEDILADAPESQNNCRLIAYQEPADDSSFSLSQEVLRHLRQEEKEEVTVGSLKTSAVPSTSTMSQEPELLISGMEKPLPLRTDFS
For data set [1], the system named is primary human PBMC IFNβ protein production. The data set can be described thus: Ex vivo human PBMC stimulation assay, IFNβ protein. The conditions noted are these: average of five donors. The data set is classed as cell-based. The procedure: After 24 hours of incubation the tubes were centrifuged at 1400 rpm for 5 minutes and supernatants were harvested. Supernatant were stored in −80° C. for subsequent IFNβ measurement. IFNβ measurement was done using Human IFN-β Base Kit (Meso Scale Diagnostics cat # K151ADA) and protocol provided by manufacturer was used. IFN-beta estimation was done by reading assay plate at MESO SECTOR Imager 2400 and using MSD Discovery Workbench 4.0 program. After 24 hours IFNβ protein was analyzed.
Results shown in Table 10 reflect an average of measurements conducted using five different donors.

Data set [2] has as its system hepatocytes of Cynomolgus monkey. The data set is described as follows: Hepatocyte incubation, metabolite identification (monkey). It is filed as in vitro ADME. The conditions noted are these: 10 μmol/L. Here is the method:
(§1) Prior to incubations, the cryopreserved hepatocytes were thawed in a water bath at 37° C. One tube of cryopreserved hepatocytes was added to each 50-mL conical tube of cryopreserved hepatocyte recovery medium (UCRM) obtained from In Vitro ADMET Laboratories (Columbia, Md.). The cells were spun in a Beckman centrifuge (Brea, Calif.) with a GH 3.8 rotor at 740 rpm for 10 minutes at […]. The supernatant was removed and the cells were re-suspended in plating media for counting. After the cells were re-suspended in plating media, 20 μL of the re-suspension was transferred and mixed with 20 μL of AOPI staining solution. The solution was gently mixed and cells were counted using a Cellometer (Nexcelom, Lawrence, Mass.). After counting, the cells were then re-suspended at 1 or 2 million viable cells/mL in Williams' E media containing 2 mmol/L L-glutamine (pH 7.4).
(§2) The hepatocyte suspension (50 μL/well) was added into a 48-well plate. […]
(§3) The LC-MS/MS system was composed of a Shimadzu HPLC and an AB-SCIEX TripleTOF 5600 hybrid quadrupole and TOF mass spectrometer (Framingham, Mass.). […] The samples obtained from incubations with hepatocytes were analyzed under both negative and positive scan modes. […]

In data set [3] the test system is hepatocytes of CD-1 mouse. The data set is described as follows: Hepatocyte incubation, metabolite identification (mouse). The data set is classed as in vitro ADME. The conditions noted are these: 10 μmol/L. Here is the method:
as §1, §2, §3

The next data set deals with CT26 tumors. The data set is described as follows: CT26 dual tumor model (mouse colon cancer model).
A further data set concerns hepatocytes of human. The data set is described as follows: Hepatocyte incubation, metabolite identification (human). The data set is classed as in vitro ADME. The conditions noted are these: 10 μmol/L. The procedure:
as §1, §2, §3

Data set [4] relates to hepatocytes of Sprague Dawley rat. The data set is described as follows: Hepatocyte incubation, metabolite identification (rat). It is filed as in vitro ADME. To be noted: 10 μmol/L. The procedure:
as §1, §2, §3

Data set [5] relates to hepatocytes of Beagle dog. The data set is described as follows: Hepatocyte incubation, metabolite identification (dog). It is filed as in vitro ADME. To be noted: 10 μmol/L. Here is the method: as §1, §2, §3

SMILES strings stand for the structures.

Description for CT26 tumors: For study B, treatment was started 8 days (0.6 mg/kg, and 10 mg/kg) after the tumor implantation, when the average tumors reached approximately 120 mm^3.
All the mice in the study have two subcutaneous CT26 tumors. The “treated tumor” indicates the tumor with compound direct administration, while “untreated tumor” indicates the tumor without direct compound administration. Tumor volume was followed throughout the experiment. Tumor volume is measured two times weekly after the start of treatment. Tumor burden is calculated from caliper measurements by the formula for the volume of a prolate ellipsoid (L×W^2)/2 where L and W are the respective orthogonal length and width measurements (mm).

Consider `O=P1(S)OC[C@H]2O[C@@H]3[C@H](F)[C@@H]2OP(=O)(S)OC[C@H]2OC([C@H](F)[C@@H]2O1)n1cnc2c(ncnc21)NCC/C=C/CNc1ncnc2c1ncn23` (single isomer, unassigned) [Compound 37], for which the half-maximal effective concentration (EC50) at REF Human STING was more than 100 µM.

`O=[P@]1(S)OC[C@H]2O[C@@H]3[C@H](F)[C@@H]2O[P@](=O)(S)OC[C@H]2O[C@H]([C@H](F)[C@@H]2O1)n1cnc2c(ncnc21)NC/C=C/CNc1ncnc2c1ncn23` [Compound 1a]: the “IFNβ” value in data set [1] (0.1 μM, 24 hours) is on record as 21.3 ± 17.8 pg/mL; in data set [1] (10 μM, 24 hours), 540.2 ± 215.0 pg/mL; in data set [1], 227.5 ± 62.4 pg/mL. The “metabolites identified (LC-MS/MS)” value (in data set [2] (monkey hepatocytes); in data set [3] (mouse hepatocytes); in the data set with hepatocytes of human (human hepatocytes); in data set [4] (rat hepatocytes); in data set [5] (dog hepatocytes)) was “No apparent metabolite” each time. For the same molecule, the “stability in incubations with hepatocytes” value was “stable” in data set [2] (monkey, up to 240 minutes); “stable” in data set [3] (mouse, up to 240 minutes); “stable” in the data set on hepatocytes of human (human, up to 240 minutes); “stable” in data set [4] (rat, up to 240 minutes); “stable” in data set [5] (dog, up to 240 minutes). The “cure rate, treated tumors” value with CT26 tumors (0.6 mg/kg, intratumoral single dose (study B)) is 20%. Besides, the “animals cured of treated tumor at the end of study” value in the data set with CT26 tumors (10 mg/kg, intratumoral single dose (study B)) is 100%. In addition, the “curative effects, untreated tumors” value in the data set with CT26 tumors (10 mg/kg, intratumoral single dose into the other tumor) is 80%.
